The nature of the data set: solubility of K-252a in various solvents at 22° C. The class given is physicochemical.

The values below come from patent US20090239271A1, “FERMENTATION BROTH EXTRACTION OF K-252A” (ABBOTT LABORATORIES, priority 2005, published 2009).

Structures are written as SMILES.

Regarding `COC(=O)[C@@]1(O)C[C@H]2O[C@]1(C)n1c3ccccc3c3c4c(c5c6ccccc6n2c5c31)C(=O)NC4` [K-252a, methyl (1R,2S,4R)-2,4-(6,7,12,13-tetrahydro-5H-indolo[2,3-a]pyrrolo[3,4-c]carbazol-5-onediyl)-1-hydroxy-2-methyltetrahydrofuran carboxylate], the Solubility was 9.36 mg K-252a/g solvent (solvent 1% water/acetone); 0.90 mg K-252a/g solvent (solvent 5% acetone/methanol); 1.20 mg K-252a/g solvent (solvent 10% MTHF/methanol); 1.22 mg K-252a/g solvent (solvent 10% acetone/methanol); 104.07 mg K-252a/g solvent (solvent 10% water/MTHF (kinetic)); 31.97 mg K-252a/g solvent (solvent 10% water/MTHF (thermodynamic)). Moreover, the Solubility is listed as 18.25 mg K-252a/g solvent (solvent 10% water/acetone); 0.54 mg K-252a/g solvent (solvent 10% water/methanol); 17.78 mg K-252a/g solvent (solvent 20% water/acetone); over 17.7 mg K-252a/g solvent (solvent 20% water/methyl acetate); 12.40 mg K-252a/g solvent (solvent 30% water/acetone); 7.93 mg K-252a/g solvent (solvent 50% acetone/methanol). Besides, the Solubility was 18.59 mg K-252a/g solvent (solvent 75% acetone/methanol); 27.99 mg K-252a/g solvent (solvent MTHF); 7.99 mg K-252a/g solvent (solvent acetone); 0.72 mg K-252a/g solvent (solvent methanol); over 11.7 mg K-252a/g solvent (solvent methyl acetate).
